Data on two compounds can be found in article PMC4294381, “Metformin repositioning as antitumoral agent: selective antiproliferative effects in human glioblastoma stem cells, via inhibition of CLIC1-mediated ion current” (Oncotarget, 2014).

Format in all cases: cell-based
Test [1] addresses T1, chloride intracellular channel-1 (CLIC1) (Homo sapiens, UniProt O00299). In words: whole-cell patch clamp in transfected CHO cells. Details: FLAG-tagged CLIC1-wt expressed in CHO cells.
Test [2] addresses T2, chloride intracellular channel-1 (CLIC1) (Homo sapiens, UniProt O00299, R29A).
T2 construct: FLAG-tagged CLIC1 R29A expressed in CHO cells
In words: whole-cell patch clamp in transfected CHO cells. (In general: Patch clamp records ionic current or voltage across a cell membrane.)

Test [3] deals with T1, chloride intracellular channel-1 (CLIC1). Briefly: patch clamp, whole-cell (U87, GBM CSC, CHO expressing human CLIC1) and outside-out single channel.
The target of test [4] is T3, chloride intracellular channel-1 (CLIC1) (Homo sapiens, UniProt O00299, K37A).
T3 construct: FLAG-tagged CLIC1 K37A expressed in CHO cells
Briefly: whole-cell patch clamp in transfected CHO cells, metformin […].

Each structure is given as a SMILES string.

By EC50 is commonly meant the concentration needed to bring the measured effect to its halfway point. Read a high EC50 as weaker potency. Turning to `CC1(C2CCCC2)Cc2cc(OCC(=O)O)c(Cl)c(Cl)c2C1=O` (stereo not shown) [IAA94], the half-maximal effective concentration (EC50) in test [1] stood at 27.3 µM; in test [2], 29.2 µM.

Take `CN(C)C(=N)N=C(N)N` [Metformin]: the EC50 in test [3] was determined as 2.1 mM. The “whole-cell patch clamp in transfected CHO cells, metformin 10 mM” value in test [4] is “Metformin significantly inhibited membrane current in CLIC1 wt and K37A-transfected cells (Fig. 7A and D)”.
